# Measurements published in publication PMC6609550, “Blockade of the forward Na^+/Ca^2+ exchanger suppresses the growth of glioblastoma cells through Ca^2+‐mediated cell death” (British Journal of Pharmacology, 2019).
# Legend:
# [1] = test system: [Ca^2+]i in U87 cells; experiment: Ca2+ imaging (Fluo-4 AM) of U87 cells; assay type: cell-based, Human; conditions: for Effect on [Ca2+]i level in Ca2+-free solution / Effect on intracellular Ca2+ pool and ER Ca2+ transporting: Ca2+‐free solution; for Effect on intracellular Ca2+ pool and ER Ca2+ transporting: followed by 5‐μM thapsigargin; for Effect on [Ca2+]i level: solution containing 2‐mM Ca2+, bepridil or KB‐R7943 25 or 50 μM, CB‐DMB 2 and 4 μM
# Method: Cells were cultured in 96‐well plates at 8 × 10^3 per well and loaded with the cell membrane‐permeable Ca^2+ dye Fluo‐4 AM (5 μM) in 100‐μl HEPES‐buffered solution for 50 min. The solution contained (mM): 135 NaCl, 3 KCl, 2 CaCl2, 1 MgCl2, 10 glucose, and 10 HEPES, supplemented with 1% FBS at pH 7.4. To prepare the Ca^2+‐free solution, 2‐mM CaCl2 was replaced with 1‐mM EGTA in the HEPES‐buffered solution. The 96‐well plate containing the Fluo‐4 AM‐loaded cells was mounted in a Leica TCS SP8 confocal system (Leica Microsystems, Wetzlar, Germany). The confocal microscope armed with 488‐nm laser light was employed to excite the dynamic fluorescent signals in time and synchronously, while test regents were added to cells. To do Na^+ imaging, Fluo‐4 AM was replaced with the cell membrane‐permeable Na^+ dye Asante NaTrium Green‐2 AM (ANG‐2 AM) at 5 μM, which was excited by 514‐nm laser light. Visual inspection and fluorescent imaging were carried out at room temperature. The imaging data were analysed with the software https://leica-las-af-lite.software.informer.com/ 2.5 (Leica). The imaging traces shown are representative of at least three separate experiments; 12–18 cells were imaged in each experiment.
# [2] = test system: human astrocytes; experiment: Cell viability of human astrocytes; assay type: cell-based; conditions: 25 μM, 48 hr
# Method: (§1) Cell viability was determined by using a Cell Counting Kit‐8 (Dojindo, Japan). Briefly, cells were harvested from flasks and plated in 96‐well cell culture plates at 5 × 10^3 per well and cultured overnight. Cells were treated with test reagents for 72 hr. Control cells were treated with cell culture medium and measured at the same time point as treatment groups. CCK‐8 solution (10 μl) was added to each well of the 96‐well plates, and the cultures were incubated for 30 min at 37°C. Absorbance at 450 nm was measured using an automatic microplate reader (Molecular Devices, San Jose, CA, USA).
# Figure 8 Impact of bepridil on human astrocytes (HA) and the Na^+/Ca^2+ exchanger (NCX) isoforms in each cell line. (a) Viability of U87, U251, and SF188 cells and HA after exposure to bepridil (25 μM, 48 hr); n = 5 independent tests in each group. (b) The bands of NCX1, NCX2, and NCX3 isoforms detected by Western blot analysis in the sample of HA and glioblastoma cell lines U87, U118, A172, U251, and SF188. (c) Representative recording of the NCX currents in HA and glioblastoma cell lines. (d) Viability of U87, U251, and SF188 cells and HA after exposure to KB‐R7943 (25 μM, 48 hr). n = 5 independent tests in each group
# [3] = test system: SF188 cells; experiment: Cell viability assay (Cell Counting Kit-8), SF188; assay type: cell-based, Human; conditions: for Effect on viability of paediatric glioblastoma cell line SF188 (in words): 0–100 μM; for Effect on viability of paediatric glioblastoma cell line SF188 (in words) / IC50: 72 hr; for IC50: CCK-8, mean ± SEM
# Method: as §1, with “Cells were treated with test reagents for 72 hr.” left out
# Figure 2 Effect of the Na^+/Ca^2+ exchanger (NCX) blockers on viability of human glioblastoma cell lines. (a, b) Viability of adult glioblastoma cell lines (U87 and U251) after exposure to NCX blockers bepridil, KB‐R7943, SEA0400, SN‐6, or YM244769 at 0–100 μM for 72 hr. n = 5 independent tests per group. (c) Viability of paediatric glioblastoma cell line SF188 after 72‐hr incubation with the same NCX blockers at 0–100 μM. n = 5 independent tests per group. (d) For U87, U251, and SF188 cell lines, concentration of the NCX blockers required to produce half maximal inhibition (IC50: μM, mean ± SEM) of cell viability.
Compound,Effect on [Ca2+]i level in Ca2+-free solution [1],Effect on intracellular Ca2+ pool and ER Ca2+ transporting [1],Effect on [Ca2+]i level [1],Cytotoxicity in human astrocytes (viability) [2],Effect on viability of paediatric glioblastoma cell line SF188 (in words) [3],"Effect on growth (viability) of SF188 cells ([3]; 25 μM, 48 hr)","IC50 ([3]; Homo sapiens, SF-188)",IC50 [3]
"CC(C)COCC(CN(Cc1ccccc1)c1ccccc1)N1CCCC1 (stereo not shown) [Bepridil, N‐benzyl‐N‐(3‐isobutoxy‐2‐pyrrolidin‐1‐yl‐propyl)aniline]",did not show [Ca^2+]i elevation or fluctuation,neither bepridil nor KB‐R7943 affect intracellular Ca^2+ pool and Ca^2+ transporting on the ER membrane,quick [Ca^2+]i increase and sustained [Ca^2+]i elevation,did not generate apparent cytotoxicity,suppressed by bepridil and KB‐R7943 in a dose‐dependent manner,markedly suppressed growth,12.9 ± 1 µM,
"CS(=O)(=O)O.N=C(N)SCCc1ccc(OCc2ccc([N+](=O)[O-])cc2)cc1 [KB‐R7943, 2‐[4‐[(4‐nitrophenyl)methoxy]phenyl]ethyl ester carbamimidothioic acid methanesulfonate]",did not show [Ca^2+]i elevation or fluctuation,neither bepridil nor KB‐R7943 affect intracellular Ca^2+ pool and Ca^2+ transporting on the ER membrane,a short [Ca^2+]i descent in the beginning and a slow [Ca^2+]i increases ensuing,deleterious to astrocytes,suppressed by bepridil and KB‐R7943 in a dose‐dependent manner,,,17.3 ± 1 µM
